In PubChem BioAssay AID296 (DTP/NCI, 2004):
Where “and” joins values, the source holds several entries; their conditions need not be identical. Equal entries are not always repeated. Inconclusive results are not listed.

System: MX-1 breast xenograft, nude mice, tumor weight T/C
Assay: NCI In Vivo Anticancer Drug Screen. Data for tumor model Human Mammary Carcinoma MX-1 Xenograft (intrarenal inoculation) in NU/NU Swiss (nude) mice
Conditions: endpoint: mean tumor weight change, higher = larger tumour
Method in brief: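 Activity is given as a ratio, with each measurement in the compound-treated arm divided by the matching measurement in vehicle-dosed controls. Tumour size or survival serves as the measured parameter.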

[1] = dose: 200.0 mg/kg/injection, schedule: Q04DX003 (sc), vehicle: saline with Tween-80
[2] = dose: 400.0 mg/kg/injection, schedule: Q04DX003 (sc), vehicle: saline with Tween-80
[3] = dose: 800.0 mg/kg/injection, schedule: Q04DX003 (sc), vehicle: saline with Tween-80
[4] = dose: 600.0 mg/kg/injection, schedule: Q04DX003 (sc), vehicle: saline with Tween-80
[5] = dose: 1200.0 mg/kg/injection, schedule: Q04DX003 (sc), vehicle: saline with Tween-80
[6] = dose: 2400.0 mg/kg/injection, schedule: Q04DX003 (sc), vehicle: saline with Tween-80
[7] = dose: 37.5 mg/kg/injection, schedule: Q04DX003 (sc), vehicle: saline with Tween-80
[8] = dose: 75.0 mg/kg/injection, schedule: Q04DX003 (sc), vehicle: saline with Tween-80
[9] = dose: 300.0 mg/kg/injection, schedule: Q04DX003 (sc), vehicle: saline with Tween-80
[10] = dose: 100.0 mg/kg/injection, schedule: Q04DX003 (sc), vehicle: saline
[11] = dose: 400.0 mg/kg/injection, schedule: Q04DX003 (sc), vehicle: saline
[12] = dose: 800.0 mg/kg/injection, schedule: Q04DX003 (sc), vehicle: suspension in saline
[13] = dose: 25.0 mg/kg/injection, schedule: Q04DX003 (sc), vehicle: saline
[14] = dose: 50.0 mg/kg/injection, schedule: Q04DX003 (sc), vehicle: saline

CCCCOCN(COCCCC)C(C)Cc1ccccc1 (stereo not given)
T/C [1]: 70 % of control
T/C [2]: 52 % of control
T/C [3]: 66 % of control

COc1cccc2c1C(=O)c1c(O)c3c(c(O)c1C2=O)C[C@@](O)(/C(C)=N/NC(=O)c1cccc([N+](=O)[O-])c1)C[C@@H]3OC1CC(N)C(O)C(C)O1 (stereo not given in full)
T/C (dose: 4.0 mg/kg/injection, schedule: Q01DX010 (sc), vehicle: water): 89 % of control
T/C (dose: 8.0 mg/kg/injection, schedule: Q01DX010 (sc), vehicle: water): 43 % of control
T/C (dose: 16.0 mg/kg/injection, schedule: Q01DX010 (sc), vehicle: water): 104 % of control

O=Cc1ccccc1
T/C (dose: 200.0 mg/kg/injection, schedule: Q04DX003 (sc), vehicle: Klucel (hydroxypropylcellulose) (HPC)): 96 % of control
T/C (dose: 400.0 mg/kg/injection, schedule: Q04DX003 (sc), vehicle: Klucel (hydroxypropylcellulose) (HPC)): 92 % of control
T/C (dose: 800.0 mg/kg/injection, schedule: Q04DX003 (sc), vehicle: Klucel (hydroxypropylcellulose) (HPC)): 85 % of control

CNC(=O)SCC(N)C(=O)O (stereo not given)
T/C (dose: 112.5 mg/kg/injection, schedule: Q04DX003 (ip), vehicle: saline): 86 % of control
T/C (dose: 225.0 mg/kg/injection, schedule: Q04DX003 (ip), vehicle: saline): 67 % of control
T/C (dose: 450.0 mg/kg/injection, schedule: Q04DX003 (ip), vehicle: saline): 27 % of control
T/C (dose: 900.0 mg/kg/injection, schedule: Q04DX003 (ip), vehicle: saline): 17 % of control

CCSC(=O)N1c2ccc(OC)cc2C=CC1C#N (stereo not given)
T/C [4]: 119 % of control
T/C [5]: 85 % of control
T/C [6]: 57 % of control
T/C (dose: 4800.0 mg/kg/injection, schedule: Q04DX003 (sc), vehicle: saline with Tween-80): 40 % of control

O=CC=O
T/C (dose: 50.0 mg/kg/injection, schedule: Q01DX010 (sc), vehicle: saline with Tween-80): 109 % of control
T/C (dose: 100.0 mg/kg/injection, schedule: Q01DX010 (sc), vehicle: saline with Tween-80): 74 % of control
T/C (dose: 200.0 mg/kg/injection, schedule: Q01DX010 (sc), vehicle: saline with Tween-80): 100 % of control
T/C (dose: 400.0 mg/kg/injection, schedule: Q01DX010 (sc), vehicle: saline with Tween-80): 60 % of control

Cc1c(N)nc(C(CC(N)=O)NCC(N)C(N)=O)nc1C(=O)NC(C(=O)NC(C)C(O)CC(=O)NC(C(=O)NC(OC1OC(C)C(N)C(O)C1O)C(O)c1nc(-c2nc(C(=O)NCCCC(N)CC(=O)NCCCNCCCCN)cs2)cs1)C(C)O)C(OC1OC(CO)C(O)C(O)C1OC1OC(CO)C(O)C(OC(N)=O)C1O)c1cnc[nH]1 (stereo not given)
T/C (dose: 8.0 mg/kg/injection, schedule: Q04DX003 (sc), vehicle: saline): 47 % of control
T/C (dose: 16.0 mg/kg/injection, schedule: Q04DX003 (sc), vehicle: saline): 40 % of control

O=C1C2CC=CCC2C(=O)N1SC(Cl)(Cl)Cl (stereo not given)
T/C [7]: 85 % of control
T/C [8]: 77 % of control
T/C (dose: 150.0 mg/kg/injection, schedule: Q04DX003 (sc), vehicle: saline with Tween-80): 97 % of control and 119 % of control
T/C [9]: 97 % of control and 112 % of control

CN1CCN(c2ccc3nc(-c4ccc5nc(-c6ccc(O)cc6)[nH]c5c4)[nH]c3c2)CC1
T/C [10]: 69 % of control
T/C (dose: 225.0 mg/kg/injection, schedule: Q04DX003 (sc), vehicle: saline): 100 % of control
T/C (dose: 225.0 mg/kg/injection, schedule: Q04DX003 (sc), vehicle: suspension in saline): 102 % of control
T/C (dose: 250.0 mg/kg/injection, schedule: Q04DX003 (sc), vehicle: suspension in saline): 67 % of control
T/C [11]: 52 % of control
T/C (dose: 500.0 mg/kg/injection, schedule: Q04DX003 (sc), vehicle: saline): 123 % of control
T/C [12]: 176 % of control
T/C (dose: 1000.0 mg/kg/injection, schedule: Q04DX003 (sc), vehicle: saline): 69 % of control
T/C (dose: 1000.0 mg/kg/injection, schedule: Q04DX003 (sc), vehicle: suspension in saline): 199 % of control

O=S1(=O)C=C(c2ccccc2)C(c2ccccc2)=C1
T/C [9]: 80 % of control
T/C [4]: 71 % of control
T/C [5]: 83 % of control
T/C [6]: 74 % of control

O=C(O)c1cc(Cc2ccc(O)c(C(=O)O)c2)ccc1O (tested in a mixture with another compound)
T/C (dose: 75.0 mg/kg/injection, schedule: Q04DX003 (sc), vehicle: Klucel (hydroxypropylcellulose) (HPC)): 63 % of control
T/C (dose: 150.0 mg/kg/injection, schedule: Q04DX003 (sc), vehicle: Klucel (hydroxypropylcellulose) (HPC)): 55 % of control
T/C (dose: 300.0 mg/kg/injection, schedule: Q04DX003 (sc), vehicle: Klucel (hydroxypropylcellulose) (HPC)): 93 % of control
T/C (dose: 600.0 mg/kg/injection, schedule: Q04DX003 (sc), vehicle: Klucel (hydroxypropylcellulose) (HPC)): 76 % of control

O.O.[NH-]C1CCCCC1[NH-].[Pt+2] (stereo not given)
T/C (dose: 2.5 mg/kg/injection, schedule: Q01DX010 (sc), vehicle: dextrose): 111 % of control
T/C (dose: 5.0 mg/kg/injection, schedule: Q01DX010 (sc), vehicle: dextrose): 76 % of control and 78 % of control
T/C (dose: 10.0 mg/kg/injection, schedule: Q01DX010 (sc), vehicle: dextrose): 55 % of control and 60 % of control
T/C (dose: 20.0 mg/kg/injection, schedule: Q01DX010 (sc), vehicle: dextrose): 26 % of control and 36 % of control

CN(C)N=Nc1cn[nH]c1C(N)=O
T/C (dose: 100.0 mg/kg/injection, schedule: Q04DX003 (sc), vehicle: suspension in saline): 98 % of control
T/C (dose: 200.0 mg/kg/injection, schedule: Q04DX003 (sc), vehicle: saline): 63 % of control
T/C (dose: 200.0 mg/kg/injection, schedule: Q04DX003 (sc), vehicle: suspension in saline): 67 % of control
T/C [11]: 49 % of control
T/C (dose: 400.0 mg/kg/injection, schedule: Q04DX003 (sc), vehicle: suspension in saline): 31 % of control and 37 % of control
T/C (dose: 800.0 mg/kg/injection, schedule: Q04DX003 (sc), vehicle: saline): 13 % of control
T/C [12]: 2 % of control and 7 % of control

COC(=O)C(F)C(Br)C(=O)OC (stereo not given)
T/C (dose: 18.75 mg/kg/injection, schedule: Q04DX003 (sc), vehicle: saline with Tween-80): 52 % of control
T/C [7]: 49 % of control
T/C [8]: 59 % of control

ClCC[Se](Cl)(Cl)c1ccccc1
T/C (dose: 12.5 mg/kg/injection, schedule: Q04DX003 (sc), vehicle: saline): 89 % of control
T/C [13]: 109 % of control
T/C [14]: 80 % of control
T/C [10]: 59 % of control

CCN=C=NCCCN(C)C
T/C [13]: 112 % of control
T/C [14]: 76 % of control

CONc1ccn(C2OC(CO)C(O)C2O)c(=O)n1 (stereo not given)
T/C (dose: 300.0 mg/kg/injection, schedule: Q04DX003 (sc), vehicle: saline): 86 % of control
T/C (dose: 600.0 mg/kg/injection, schedule: Q04DX003 (sc), vehicle: saline): 74 % of control
T/C (dose: 1200.0 mg/kg/injection, schedule: Q04DX003 (sc), vehicle: saline): 107 % of control
T/C (dose: 2400.0 mg/kg/injection, schedule: Q04DX003 (sc), vehicle: saline): 77 % of control

CCCCCCCCCCCCCCCCCC(=O)OCC(=O)OCC(=O)[C@]1(O)Cc2c(O)c3c(c(O)c2[C@@H](OC2CC(N)C(O)C(C)O2)C1)C(=O)c1c(OC)cccc1C3=O (stereo not given in full)
T/C (dose: 6.0 mg/kg/injection, schedule: Q01DX010 (sc), vehicle: water): 48 % of control
T/C (dose: 12.0 mg/kg/injection, schedule: Q01DX010 (sc), vehicle: water): 21 % of control

Cc1c2ccc3ccccc3c2c[n+]2ccccc12
T/C (dose: 9.38 mg/kg/injection, schedule: Q04DX003 (sc), vehicle: Klucel (hydroxypropylcellulose) (HPC)): 75 % of control
T/C (dose: 18.75 mg/kg/injection, schedule: Q04DX003 (sc), vehicle: Klucel (hydroxypropylcellulose) (HPC)): 77 % of control

O=C(O)C1Cc2nc[nH]c2CN1CO (stereo not given)
T/C (dose: 100.0 mg/kg/injection, schedule: Q04DX003 (sc), vehicle: saline with Tween-80): 113 % of control
T/C [1]: 113 % of control
T/C [2]: 80 % of control
T/C [3]: 99 % of control

NC(C(=O)O)c1ccc(CBr)cc1 (stereo not given)
T/C (dose: 200.0 mg/kg/injection, schedule: Q04DX003 (sc), vehicle: acid diluted with saline): 61 % of control
T/C (dose: 400.0 mg/kg/injection, schedule: Q04DX003 (sc), vehicle: acid diluted with saline): 92 % of control
T/C (dose: 800.0 mg/kg/injection, schedule: Q04DX003 (sc), vehicle: acid diluted with saline): 73 % of control
T/C (dose: 1600.0 mg/kg/injection, schedule: Q04DX003 (sc), vehicle: acid diluted with saline): 106 % of control
